Experimental data published in PubChem BioAssay (NCI).
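Compound exposure: 48 hours, 5 concentrations, 96-well plates. Abbreviation: GI50, concentration required for 50% inhibition of growth. TGI denotes the concentration required for complete inhibition of growth.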 Where a SMILES comes first, the peptide text is derived from it. [ ]: non-standard residue; d: D form. The star is where a group is joined. dTle = CC(C)(C)[C@@H](N)C(=O)O; 4Abz = Nc1ccc(C(=O)O)cc1; NHOH = ON*

Assays:
Test in all cases: NCI-60 cell line screen, 48 h
[1] = system: SK-MEL-2 melanoma
[2] = system: BT-549 breast
[3] = system: A549 NSCLC
[4] = system: KM12 colon
[5] = system: SNB-75 CNS
[6] = system: SK-MEL-5 melanoma
[7] = system: MOLT-4 leukemia
[8] = system: OVCAR-4 ovarian
[9] = system: OVCAR-5 ovarian
[10] = system: HCC-2998 colon
[11] = system: HS 578T breast
[12] = system: SK-OV-3 ovarian
[13] = system: HOP-62 NSCLC
[14] = system: TK-10 renal
[15] = system: MDA-MB-435
[16] = system: OVCAR-3 ovarian
[17] = system: CAKI-1 renal
[18] = system: ACHN renal
[19] = system: NCI-H23 lung
[20] = system: NCI-H226 lung
[21] = system: IGROV1 ovarian
[22] = system: MCF7 breast
[23] = system: M14 melanoma
[24] = system: DU-145 prostate
[25] = system: HCT-15 colon
[26] = system: HT29 colon
[27] = system: U251 CNS
[28] = system: T-47D breast
[29] = system: UACC-62 melanoma
[30] = system: HCT-116 colon
[31] = system: PC-3 prostate
[32] = system: MALME-3M melanoma
[33] = system: A498 renal
[34] = system: SF-539 CNS
[35] = system: SN12C renal
[36] = system: SF-268 CNS
[37] = system: NCI/ADR-RES ovarian
[38] = system: SW-620 colon
[39] = system: SK-MEL-28 melanoma
[40] = system: UACC-257 melanoma
[41] = system: OVCAR-8 ovarian
[42] = system: LOX IMVI melanoma
[43] = system: HOP-92 NSCLC
[44] = system: SF-295 CNS
[45] = system: EKVX NSCLC
[46] = system: COLO 205 colon
[47] = system: NCI-H460 lung
[48] = system: 786-0 renal
[49] = system: K-562 leukemia
[50] = system: UO-31 renal
[51] = system: MDA-MB-231 breast
[52] = system: SNB-19 CNS
[53] = system: NCI-H522 lung

**Q.** What does the source list for `C[C@@H](NC(=O)[C@H](NC(=O)[C@@H]1CCCN1C(=O)CNC(=O)c1ccc(N)cc1)C(C)(C)C)C(=O)NO` (H-[4Abz]GP[dTle][dA]-{NHOH})?
**A.** GI50 [1]: > 100 µM; TGI [1]: > 100 µM; GI50 [2]: > 100 µM; TGI [2]: > 100 µM; GI50 [3]: > 100 µM; TGI [3]: > 100 µM; GI50 [4]: > 100 µM; TGI [4]: > 100 µM; GI50 [5]: > 100 µM; TGI [5]: > 100 µM; GI50 [6]: > 100 µM; TGI [6]: > 100 µM; GI50 [7]: > 100 µM; TGI [7]: > 100 µM; GI50 [8]: > 100 µM; TGI [8]: > 100 µM; GI50 [9]: > 100 µM; TGI [9]: > 100 µM; GI50 [10]: > 100 µM; TGI [10]: > 100 µM; GI50 [11]: > 100 µM; TGI [11]: > 100 µM; GI50 [12]: > 100 µM; TGI [12]: > 100 µM; GI50 [13]: > 100 µM; TGI [13]: > 100 µM; GI50 [14]: > 100 µM; TGI [14]: > 100 µM; GI50 [15]: > 100 µM; TGI [15]: > 100 µM; GI50 [16]: > 100 µM; TGI [16]: > 100 µM; GI50 [17]: > 100 µM; TGI [17]: > 100 µM; GI50 [18]: > 100 µM; TGI [18]: > 100 µM; GI50 [19]: > 100 µM; TGI [19]: > 100 µM; GI50 [20]: > 100 µM; TGI [20]: > 100 µM; GI50 [21]: > 100 µM; TGI [21]: > 100 µM; GI50 [22]: > 100 µM; TGI [22]: > 100 µM; GI50 [23]: > 100 µM; TGI [23]: > 100 µM; GI50 [24]: > 100 µM; TGI [24]: > 100 µM; GI50 [25]: > 100 µM; TGI [25]: > 100 µM; GI50 [26]: > 100 µM; TGI [26]: > 100 µM; GI50 [27]: > 100 µM; TGI [27]: > 100 µM; GI50 [28]: > 100 µM; TGI [28]: > 100 µM; GI50 [29]: > 100 µM; TGI [29]: > 100 µM; GI50 [30]: > 100 µM; TGI [30]: > 100 µM; GI50 [31]: > 100 µM; TGI [31]: > 100 µM; GI50 [32]: > 100 µM; TGI [32]: > 100 µM; GI50 [33]: > 100 µM; TGI [33]: > 100 µM; GI50 [34]: > 100 µM; TGI [34]: > 100 µM; GI50 [35]: > 100 µM; TGI [35]: > 100 µM; GI50 [36]: > 100 µM; TGI [36]: > 100 µM; GI50 [37]: > 100 µM; TGI [37]: > 100 µM; GI50 [38]: > 100 µM; TGI [38]: > 100 µM; GI50 [39]: > 100 µM; TGI [39]: > 100 µM; GI50 [40]: > 100 µM; TGI [40]: > 100 µM; GI50 [41]: > 100 µM; TGI [41]: > 100 µM; GI50 [42]: > 100 µM; TGI [42]: > 100 µM; GI50 [43]: 5.76 µM; TGI [43]: > 100 µM; GI50 [44]: > 100 µM; TGI [44]: > 100 µM; GI50 [45]: > 100 µM; TGI [45]: > 100 µM; GI50 [46]: > 100 µM; TGI [46]: > 100 µM; GI50 [47]: > 100 µM; TGI [47]: > 100 µM; GI50 [48]: > 100 µM; TGI [48]: > 100 µM; GI50 [49]: > 100 µM; TGI [49]: > 100 µM; GI50 [50]: > 100 µM; TGI [50]: > 100 µM; GI50 [51]: > 100 µM; TGI [51]: > 100 µM; GI50 [52]: > 100 µM; TGI [52]: > 100 µM; GI50 [53]: > 100 µM; TGI [53]: > 100 µM
